Values quoted from earlier work in US20080279948A1, “Treatment of Asthma and Copd Using Triple-Combination Therapy” (NXP B.V., priority 2005, published 2008).

How the values were obtained:
[1] = aerosol formulation, single administration of a metered dose, asthma
[2] = controlled release formulation for pulmonary delivery

C[N+]1(C)CCC(OC(=O)C(O)(c2ccccc2)C2CCCC2)C1.[Br-] (racemic) [glycopyrrolate, 3-[(Cyclopentyl-hydroxyphenylacetyl)oxy]-1,1-dimethylpyrrolidinium bromide]
duration of bronchodilation [1]: up to 12 hours
period over which the antimuscarinic agent exerts its pharmacological effect [2]: greater than 12 hours
